Like-named read-outs stand apart in the source and are kept apart here. Marks after values point to notes of the source that are not given here.
Experiments:
[1] = tested on: NK Falkone corn seeds; experiment: Corn seed germination under cold stress; format: in vivo; details: 250 μM, cold stress 15° C., control T50 = 110 hours; negative = faster germination
Protocol: Corn seed germination studies were undertaken on the compounds of the present invention. In particular, the effect of the compounds of Formulae (IA-1a) and (IA-1b) on the germination of NK Falkone corn seeds (Syngenta) under cold stress was evaluated as follows.
NK Falkone corn seeds were sorted by size using 2 sieves, one excluding very big seeds and the other with round holes of 8 to 9 mm diameter. The seeds retained by the latter sieve were used for the germination test.
The corn seeds were placed in 24 well plates (each plate is considered as one experimental unit or replicate). Germination is initiated by the addition of 250 μl of distilled water containing 0.5% DMSO per well as a means for compound solubilization. 8 replicates (ie, 8 plates) were used for each treatment characterization. Plates were sealed using seal foil (Polyolefin Art. Nr. 900320) from HJ-BIOANALYTIK. All plates were placed horizontally on trolleys in a climatic chamber at 15° C. or 23° C. in complete darkness. The experiment was laid out in a completely randomized design in a climatic chamber with 75% relative humidity. Foils were pierced, one hole per well using a syringe after 72 hours for experiments performed at 15° C. and after 24 hours for experiments performed at 23° C.
Germination was followed over time by taking photographs at different time points. Image analysis is done automatically with a macro developed using the Image J software. A dynamic analysis of germination is carried out by fitting a logistic curve to the relationship between % germination and time for each plate (T50 parameter).
T50 is the time needed for half the seed population to be germinated. A negative value of T50 represents a faster germination rate. The mean of T50 parameters is calculated for the 8 replicates and the kinetic parameter is determined for each germination curve. Data in bold indicate germination enhancing statistically significant differences between treated seeds and control (empty vehicle treated) T50 values (P<0.05) as outlined in Table 4.

[2] = Hydrolytic stability assay; format: physicochemical; details: for half-life: 20 mM mixed acetate, borate and phosphate buffer; for half-life / Hydrolytic Stability (t1/2, hours) pH 7: 40° C.; for % remaining at last assessment time: pH 7, 40° C.
Protocol: The objective of the hydrolytic stability assays is to determine the chemical stability of individual test compounds according to the invention in a controlled and reproducible environment, allowing a comparison of compound in vitro stability under aqueous conditions at pH 7 and 9. Prior to conducting the individual hydrolytic stability assays, stock solutions containing 1000 ppm of each test compound (ie, compounds (IA-1a), (IA-1b), (IA-17a), (IA-17b), P1 and P2) were prepared in methanol. The reagents used in the assays were prepared as follows. A 20 mM buffer solution was prepared from a stock solution of 20 mM mixed acetate, borate and phosphate buffer and the pH adjusted to 7 or 9 as required. Test solutions were prepared in LC vials for each test compound in the following manner: Mobile Phase Control: Mobile phase (1 mL)+compound stock solution (2 to 40 μL). Hydrolytic Stability: Buffer (1 mL)+compound stock solution (2 to 40 μL). The mobile phase and buffer were initially dispensed into separate glass LC vials, placed into an autosampler complete with thermostat set at 40° C. and allowed to equilibrate for 30 minutes prior to starting the individual assays. Reactions were initiated by addition of the compound solution and monitored through a series of repeat injections made directly from the vial into the HPLC system at regular time intervals. Initial and subsequent measurements of peak area attributable to the test compound were used to fit exponential half-lives and calculate first-order rate constants. […] Consequently, the percentage of compound remaining was recorded at the last assessment time.

[3] = Soil stability assay; format: physicochemical; details: Stein soil:sand 1:1, 0.3 μg/g soil, dark, 20° C.
Source text: It is highly desirable that agrochemicals applied to soil in order to deliver a beneficial biological effect can exist in the soil for a prolonged period of time with minimal degradation. However, a biologically active agrochemical compound may undergo chemical transformation in soil, leading to decreased levels of activity and a decrease in a desired biological effect. Simple laboratory degradation studies can be used to evaluate the disappearance due to biotic and abiotic processes of a compound in soil. The time taken for a compound to degrade in soil allows the estimation of their half-life (t1/2), which corresponds to the time in which 50% of the compound under evaluation is degraded in soil. […] Stock standard solutions were prepared by dissolving 1 mg of each test compound (ie, compounds (IA-1a and IA-1b), (IA-17a and IA-17b), P1 and P2) in acetonitrile. The stock standard solutions were stored at 6° C. Working standard solutions were then obtained by a series of dilutions of the stock standard solutions. A treatment solution of 100 μg/mL concentration for each test compound was prepared in methanol. Soil samples used for this soil stability assay were collected at the Syngenta Research Centre location in Stein (Switzerland). The soil was classified as clay loam. Certain physical properties of the soil are described in Table 2. 2 mm sieved Stein soil was mixed with sand at ratio 1:1 prior to starting the laboratory soil degradation experiment. 10 g of the sand-soil mix (air-dried basis) was weighed into 50 ml Corning® polypropylene centrifuge tubes and soil moisture was adjusted at 45% of the field capacity. Chemical application was performed by applying 30 μl of a 100 μg/mL solution of each test compound to 10 g soil vessel corresponding to a final concentration of 0.3 μg test compound per gram of soil. Three replicates were considered for each test compound. Treated tubes were incubated in the dark at 20° C.±0.5. For the estimation of half-life, different sampling times were considered. Based on initial studies, a fast degradation was expected for compounds P1, P2 and IA-17 therefore the following short sampling times of 0, 3, 6, 9 and 24 hours after application were considered. Conversely for compounds IA-1, longer sampling times of 0, 6, 24, 48, 72, 168 and 240 hours after application were used. At each sampling time, samples were removed and stored at −80° C. until analysis. The half-lives were calculated by an exponential regression analysis plotting the percentage of recovered compound in soil against the time. Compounds P1, P2, (IA-1) and (IA-17) were extracted from soil by using 30 mL of Acetonitrile (CHROMASOLV® gradient grade, for HPLC, >99.9%, SIGMA-ALDRICH). The mixture was shaken for 3 hours at room temperature by using a vertical rotary shaker. After centrifugation at 3000 rpm for 5 minutes, an aliquot of the supernatant was collected and analyzed via UPLC-MS (Waters Acquity UPLC-MS PDA-Detection: 254 nm- and SQD-Zspray ESI, APCI, ESCi®-; Waters Acquity UPLC Column HSS T3 2.1×30 mm-1.8 μm; Gradient mobile phase with Solvent A: Water/MeOH (9:1)+ 0.1% Formic Acid and Solvent B: Acetonitrile+ 0.1% Formic Acid; flow of 0.75 ml/min).

[4] = pH 9, 20 mM acetate/borate/phosphate buffer, read-out: Hydrolytic Stability (t1/2, hours) pH 9 (converted)
[5] = pH 7, 20 mM acetate/borate/phosphate buffer
[6] = pH 7, 20 mM acetate/borate/phosphate buffer, read-out: Hydrolytic Stability (t1/2, hours) pH 7 (converted)

| SMILES | half-life [2, 4] [h] | Hydrolytic Stability (t1/2, hours) pH 7 [2, 5] | Hydrolytic Stability (t1/2, hours) pH 7 ([2]; pH 7, 20 mM acetate/borate/phosphate buffer, listed as IA-1a) | % remaining at last assessment time ([2]; at 17.9 hours) | Soil Stability (t1/2, hours) [3] [h] | Hydrolytic Stability (t1/2, hours) pH 7 ([2]; pH 7, 20 mM acetate/borate/phosphate buffer, listed as IA-1b) | % remaining at last assessment time ([2]; at 21.1 hours) | Hydrolytic Stability (t1/2, hours) pH 7 ([2]; pH 7, 20 mM acetate/borate/phosphate buffer, listed as IA-17a) | % remaining at last assessment time ([2]; at 17.3 hours) | Hydrolytic Stability (t1/2, hours) pH 7 ([2]; pH 7, 20 mM acetate/borate/phosphate buffer, listed as IA-17b) | % remaining at last assessment time ([2]; at 16.8 hours) | half-life [2, 6] [h] | % remaining at last assessment time ([2]; at 21.5 hours) | % remaining at last assessment time ([2]; at 15.8 hours) | T50 (% vs control) [1] |
| --- | --- | --- | --- | --- | --- | --- | --- | --- | --- | --- | --- | --- | --- | --- | --- |
| CC1=C(C)[C@H](O/C=C2/C(=O)N[C@@H]3c4ccccc4C[C@H]23)OC1=O [(IA-1a), (3E,3aR,8bS)-3-[[(2R)-3,4-dimethyl-5-oxo-2H-furan-2-yl]oxymethylene]-1,3a,4,8b-tetrahydroindeno[1,2-b]pyrrol-2-one] | 2.4 | stable^b | insufficient loss was observed | ^b91.8% remaining at 17.9 hours | 87 | – | – | – | – | – | – | – | – | – | −6.10^c % vs control |
| CC1=C(C)[C@@H](O/C=C2/C(=O)N[C@@H]3c4ccccc4C[C@H]23)OC1=O [(IA-1b), (3E,3aR,8bS)-3-[[(2S)-3,4-dimethyl-5-oxo-2H-furan-2-yl]oxymethylene]-1,3a,4,8b-tetrahydroindeno[1,2-b]pyrrol-2-one] | 2.1 | stable^a | – | – | 53 | insufficient loss was observed | ^a90.9% remaining at 21.1 hours | – | – | – | – | – | – | – | −7.60 % vs control |
| COC1=C(C)C(=O)O[C@H]1O/C=C1/C(=O)N[C@@H]2c3ccccc3C[C@H]12 [(IA-17a), (3E,3aR,8bS)-3-[[(2R)-3-methoxy-4-methyl-5-oxo-2H-furan-2-yl]oxymethylene]-1,3a,4,8b-tetrahydroindeno[1,2-b]pyrrol-2-one] | 16.6 | stable^d | – | – | 340 | – | – | insufficient loss was observed | ^d99.1% remaining at 17.3 hours | – | – | – | – | – | −6.50 % vs control |
| COC1=C(C)C(=O)O[C@@H]1O/C=C1/C(=O)N[C@@H]2c3ccccc3C[C@H]12 [(IA-17b), (3E,3aR,8bS)-3-[[(2S)-3-methoxy-4-methyl-5-oxo-2H-furan-2-yl]oxymethylene]-1,3a,4,8b-tetrahydroindeno[1,2-b]pyrrol-2-one] | 19 | stable^c | – | – | 312 | – | – | – | – | insufficient loss was observed | ^c99.0% remaining at 16.8 hours | – | – | – | −5.10 % vs control |

Further lines, with some results ahead:

| half-life [2, 4] [h] | Hydrolytic Stability (t1/2, hours) pH 7 [2, 5] | Hydrolytic Stability (t1/2, hours) pH 7 ([2]; pH 7, 20 mM acetate/borate/phosphate buffer, listed as IA-1a) | % remaining at last assessment time ([2]; at 17.9 hours) | Soil Stability (t1/2, hours) [3] [h] | Hydrolytic Stability (t1/2, hours) pH 7 ([2]; pH 7, 20 mM acetate/borate/phosphate buffer, listed as IA-1b) | % remaining at last assessment time ([2]; at 21.1 hours) | Hydrolytic Stability (t1/2, hours) pH 7 ([2]; pH 7, 20 mM acetate/borate/phosphate buffer, listed as IA-17a) | % remaining at last assessment time ([2]; at 17.3 hours) | Hydrolytic Stability (t1/2, hours) pH 7 ([2]; pH 7, 20 mM acetate/borate/phosphate buffer, listed as IA-17b) | % remaining at last assessment time ([2]; at 16.8 hours) | half-life [2, 6] [h] | % remaining at last assessment time ([2]; at 21.5 hours) | % remaining at last assessment time ([2]; at 15.8 hours) | SMILES | T50 (% vs control) [1] |
| --- | --- | --- | --- | --- | --- | --- | --- | --- | --- | --- | --- | --- | --- | --- | --- |
| 0.4 | – | – | – | 4 | – | – | – | – | – | – | 25.6 | ^f55.4% remaining at 21.5 hours | – | CC1=C[C@H](O/C=C2/C(=O)N[C@@H]3c4ccccc4C[C@H]23)OC1=O [Compound P1, reference compound] | −4.20 % vs control |
| 0.3 | – | – | – | 4.2 | – | – | – | – | – | – | 79.5 | – | ^e86.9% remaining at 15.8 hours | CC1=C[C@@H](O/C=C2/C(=O)N[C@@H]3c4ccccc4C[C@H]23)OC1=O [Compound P2, reference compound] | −2.30 % vs control |

From patent publication US20180168154A1, “PLANT GROWTH REGULATING COMPOUNDS” (Syngenta Participations AG, priority 2015, published 2018)
